Read-outs that look alike come from different tables or passages of the source.
Legend:
insect = assay: Synergistic insecticidal effect of Imidacloprid + Acephate (mortality, Colby's method); format: in vivo
Method: Synergism can be calculated by using the Colby's method i.e. the expected (or predicted) response of the combination is calculated by taking the product of the observed response for each individual component of the combination when applied alone divided by 100 and subtracting this value from the sum of observed response for each component when applied alone. Synergism of the combination is then determined by comparing the observed response of the combination to the expected (or predicted) response as calculated from the observed response of each individual component alone. If the observed response of the combination is greater than the expected (or predicted) response then the combination is said to be synergistic and falls within the definition of synergistic effect. (Colby, S. R., Weeds, 1967(15), p. 20-22)

[1] = AHS stability study in trilaminated pouches, 14 days at 30, 45 and 54° C.: active content and pH of 1% aq. solution/suspension; format: physicochemical; details: for extent to which Acephate degrades: 54° C.
Method: Acephate technical of 97.5% purity was taken and kept in AHS stability study at 30, 45 and 54° C. in trilaminated pouches. The results of the AHS experiment for Acephate Technical are seen in the following Tables 1, 2 and 3.
40 gm Acephate technical of 97.5% purity was taken from plant and mixed with 10 gm of citric acid by using laboratory made mixture to obtained homogenious powder and is then kept in AHS at 30, 45 and 54° C. in trilaminated pouches.
40 gm Acephate technical of 97.5% purity was taken from plant and mixed with 5 gm of citric acid by using laboratory made mixture to obtained homogenious powder and is the kept in AHS at 30, 45 and 54° C. in trilaminated pouches.
48 gm Acephate technical of 97.5% purity was taken from plant and mixed with 2 gm of citric acid by using laboratory made mixture to obtained homogenious powder and is the kept in AHS at 30, 45 and 54° C. in trilaminated pouches.
Acephate technical of 97.5% purity was taken from the plant and mixed in a laboratory mixer by adding 1% water and was then kept in AHS stability study at 30° C., 45° C. and 54° C. in trilaminated pouches.
Acephate technical of 97.5% purity was taken from the plant and mixed in laboratory mixer by adding 1% water 4% citric acid and was then kept in AHS stability study at 30, 45 and 54° C. in trilaminated pouches.
Imidacloprid technical was taken from the plant and is kept in AHS stability study at 30, 45 and 54° C. in trilaminated pouches.
Imidacloprid technical was taken from the plant and mixed in laboratory mixer by adding 1% water and is then is kept in AHS stability study at 45 and 54° C. in trilaminated pouches.
40 gm of Imidacloprid technical and 10 gm of citric acid was mixed in laboratory mixer and was then kept in AHS stability study at 30, 45 and 54° C. in trilaminated pouches,
45 gm of Imidacloprid technical and 05 gm of citric acid was mixed in laboratory mixer and was then kept in AHS stability study at 30° C., 45° C. and 54° C. in trilaminated pouches.
48 gm of Imidacloprid technical and 2 gm of citric acid was mixed in laboratory mixer and was then kept in AHS stability study at 30, 45 and 54° C. in trilaminated pouches.
49.5 gm of Imidacloprid technical and 0.5 gm of citric acid was mixed in laboratory mixer and was then kept in AHS stability study at 30, 45 and 54° C. in trilaminated pouches.
Imidacloprid technical was taken from plant and mixed in laboratory mixer by adding 10 gm citric acid and 2 gm water and is then is kept in AHS stability study at 30, 45 and 54° C. in trilaminated pouches,
Imidacloprid technical was taken from the plant and mixed in laboratory mixer by adding 5 gm citric acid and 2 gm water and was then kept in AHS stability study at 30, 45 and 54° C. in trilaminated pouches.
53 gm of Acephate technical was taken from the plant and mixed in a laboratory mixer by adding 3 gm imidacloprid without coating and without any citric acid. This was then kept in AHS stability study at 30, 45 and 54° C. in trilaminated pouches.
53 gm of Acephate technical was taken from the plant and mixed in a laboratory mixer by adding 3 gm imidacloprid without encapsulation and with 2.2 gm of citric acid . This was then kept in AHS stability study at 30, 45 and 54° C. in trilaminated pouches.
In a laboratory plough shear mixture 291.5 gm of Imidacloprid of particle size ranging from 15 micron to 50 micron was charged and blended by operating only the plough. Then 204 gm PEG-8000 was heated in a separate vessel at 65° C. for 15 min. […]

rats [2] = details: cited from earlier work
rabbits = details: cited from earlier work
[3] = in vivo; cited from earlier work
[4] = cited from earlier work
[5] = cited from earlier work; for DT50 (hydrolysis): 40° C.; for DT 50 (calculated) (hydrolysis): 20° C.
rats [6] = details: cited from earlier work; remark: listed apart in the source
crop plants = details: in vivo; cited from earlier work
[7] = mammals, oral administration, within 24 hours, almost entirely in the urine; cited from earlier work
rats [8] = details: cited from earlier work; remark: listed apart in the source
mice = details: cited from earlier work

O=[N+]([O-])NC1=NCCN1Cc1ccc(Cl)nc1 [Experiment 7, 1-(6-chloro-3-pyridylmet-hyl)-N-nitroimidazolidin-2-yldeneamine]
Observed Mortality % (insect; Imidacloprid 24 ppm, Acephate 0 ppm): 55.00%
Observed Mortality % (insect; Imidacloprid 27 ppm, Acephate 0 ppm): 69.25%
Observed Mortality % (insect; Imidacloprid 30 ppm, Acephate 0 ppm): 72.10%
Stability of Imidacloprid ([1]; pH of 2.68, Imidacloprid:citric acid 40:10): still more unstable
Stability of Imidacloprid ([1]; pH of 3.60, Imidacloprid:Citric acid 49.5:0.5): unstable
Stability of Imidacloprid ([1]; pH of 5.90): stable
Acute percutaneous LD50 (24 h) (rats [2]; rats, 24 h): > 5000 mg/kg
irritation to skin and eyes (rabbits): Non irritating
skin sensitisation [3]: Not a skin sensitiser
solubility in hexane ([4]; 20° C.): < 0.1 mg/mL
Stability of imidacloprid reported in literature ([5]; pH of 5.60): stable
inhalation LC50 (4 h) (rats [6]; female rats, aerosol): > 5323 mg/m^3 air

COP(=O)(NC(C)=O)SC (stereo not shown) [Experiment 1, O,S-dimethylacetylphosphoramidothioate]
Observed Mortality % (insect; Imidacloprid 0 ppm, Acephate 600 ppm): 52.50%
Observed Mortality % (insect; Imidacloprid 0 ppm, Acephate 700 ppm): 60.00%
Observed Mortality % (insect; Imidacloprid 0 ppm, Acephate 800 ppm): 70.00%
extent to which Acephate degrades ([1]; presence of 1% moisture, absence of Citric acid, initial pH of 4.70): 12.84%
extent to which Acephate degrades ([1]; presence of Citric acid and 1% moisture, initial pH 3.18): 6.88%
solubility in ethanol ([4]; 20° C.): > 100 mg/mL
solubility in water ([4]; 20° C.): about 790 g/l
DT50 (hydrolysis) ([5]; pH 3): 710 h
DT50 (hydrolysis) ([5]; pH 9): 60 h
phytotoxicity (crop plants): non-phytotoxic to most crop plants

CCN(CC)C(=O)C(Cl)=C(C)OP(=O)(OC)OC [Phosphamidon, 2-chloro-2-diethylcarbamoyl-1-methylvinyldimethylphosphate]
% of the dose excreted [7]: 85-90%
DT 50 (calculated) (hydrolysis) ([5]; pH 5): 60 days
DT 50 (calculated) (hydrolysis) ([5]; pH 7): 54 days
DT 50 (calculated) (hydrolysis) ([5]; pH 9): 12 days

C/C(=N\C#N)N(C)Cc1ccc(Cl)nc1 [Acetamiprid]
acute oral LD50 (rats [8]; female rats): 146 mg/kg
acute oral LD50 (rats [8]; male rats): 217 mg/kg
acute oral LD50 (mice; female mice): 184 mg/kg
acute oral LD50 (mice; male mice): 198 mg/kg
Acute percutaneous LD50 (rats [2]; male and female rats): > 2000 mg/kg
irritation to skin and eyes (rabbits): Non irritating
solubility in organic solvents ([4]; acetone, methanol, ethanol, dichloromethane, chloroform, acetonitrile and tetrahydrofuron): soluble
stability in buffered solutions ([5]; pH 4, 5, 7): Stable
stability ([5]; pH 9 and 45° C.): Degraded slowly
stability under sunlight ([5]; sunlight): Stable
inhalation LC50 (4 h) (rats [6]; male and female rats): > 0.29 mg/L

Source: patent US8486429B2, “Storage stable formulation and a process for its preparation” (priority 2005, dated 2013)
